Here are results for 15 compounds from publication PMC11247629, “New Lipophilic Hydroxamates as Promising Trypanocidal Agents: Design, Synthesis, SAR, and Conformational Behavior Studies” (ACS Medicinal Chemistry Letters, 2024).

One may read the IC50 as the point on the concentration scale where inhibition reaches its midpoint. The term IC90 denotes the concentration needed for an effect of 90%. A low value points to greater potency.

The subject of the first assay is T. brucei.
Assay: not given
The note with it: spiro carbocyclic 2,6-DKP-1-acetohydroxamic acids 1-5 reported previously; cited from earlier work.
On to `CN1CC(=O)N(CC(=O)NO)C(=O)C12CCCCCCC2` [Compound 4b], for which the IC50 is 158 nM.

In the case of `CC(C)C[C@@H]1NC2(C(=O)N(CC(=O)NO)C1=O)C1CC3CC(C1)CC2C3` (stereo partly shown) [Compound 1d], the half-inhibitory concentration (IC50) was 283 nM.

Consider `CC(C)C[C@@H]1NC2(CCCCCCC2)C(=O)N(CC(=O)NO)C1=O` [Compound 4d], for which the IC50 was 72 nM.

On to `C[C@@H]1NC2(C(=O)N(CC(=O)NO)C1=O)C1CC3CC(C1)CC2C3` (stereo partly shown) [Compound 1c], for which the half-inhibitory concentration (IC50) was 134 nM.

For `CN1CC(=O)N(CC(=O)NO)C(=O)C12C1CC3CC(C1)CC2C3` (stereo not shown) [Compound 1b], the IC50 was 193 nM.

For `CN1CC(=O)N(CC(=O)NO)C(=O)C12CCCCCC2` [Compound 5b], the IC50 was 285 nM.

With `O=C(CN1C(=O)[C@H](Cc2ccccc2)NC2(CCCCCCC2)C1=O)NO` [Compound 4f], the 50% inhibitory concentration (IC50) was 29 nM.

As to `O=C(CN1C(=O)CNC2(CCCCCCC2)C1=O)NO` [Compound 4a], the IC50 was 300 nM.

On to `O=C(CN1C(=O)CNC2(C1=O)C1CC3CC(C1)CC2C3)NO` (stereo not shown) [Compound 1a], for which the IC50 was 90 nM.

`O=C(CN1C(=O)[C@H](Cc2ccccc2)NC2(C1=O)C1CC3CC(C1)CC2C3)NO` (stereo partly shown) [Compound 1f]: the IC50 was 6.8 nM.

Regarding `O=C(CN1C(=O)[C@@H](Cc2ccccc2)NC2(C1=O)C1CC3CC(C1)CC2C3)NO` (stereo partly shown) [Compound 1g], the IC50 is 9.1 nM.

In the next assay the test system is bloodstream form T. b. brucei (strain 221). Kind of assay: Growth inhibition of cultured bloodstream-form T. brucei (resazurin). The note with it: T. brucei IC50; 21 vs 18, 22 vs 19, 23 vs 20, 26 vs 24. Type of assay: cell-based, Trypanosoma brucei. Here is the method: The new hydroxamic acid derivatives 18–28 were tested against bloodstream-form T. brucei in vitro. The results are presented in Table 1, and are expressed as IC50 and IC90 values. […]
Reference: minimized structure, heterocycle and adamantane cage).
IV. Experimental procedures for the biological evaluation of the compounds
Growth inhibition analysis was carried out using bloodstream form T. b. brucei (strain 221) cultured at
37 °C, as previously described.8 Briefly, experiments were performed using 96-well microtiter plates (200
μL volumes), with each assay initiated with 2.5 x10^4 parasites mL−1, and test compounds then added at 7
concentrations in a range that had been established in preliminary experiments to encompass both EC50
and EC90 values. Plates were incubated for 48 hours, resazurin (20 μL at 0.125 mg mL−1) was then added,
and the plates re-incubated for 16 hours. Fluorescence was determined using a BMG FLUOstar Omega plate
reader (excitation 545 nm, emission 590 nm), and the data analysed using GraphPad Prism 9.0 software.
The data are expressed as IC50/IC90 ± SD, and are the average of 3 independent replicates. […]
(Alamar Blue is a resazurin reagent that responds to reducing activity.)
Take `CN(CC(=O)NO)C(=O)CN1C(=O)CNC2(CCCCCCC2)C1=O` [Compound 26]: the “times more potent than the nonmethylated counterpart” value was > 8 fold.

Still in this assay, the particulars now being: T. brucei IC50 relative to compound 1a (insertion of acetamido portion).
For `O=C(CNC(=O)CN1C(=O)CNC2(C1=O)C1CC3CC(C1)CC2C3)NO` (stereo not shown) [Compound 18], the “fold loss in potency” value amounted to 278 fold.

Still in this assay, the particulars now being: Trypanosoma brucei, cultured bloodstream-form Trypanosoma brucei, pH = 7.4; concentration inhibiting growth by 50%; mean of triplicate ± SEM.
With `O=C(CNC(=O)CN1C(=O)CNC2(CCCCCC2)C1=O)NO` [Compound 27], the IC50 is > 30000 nM.

Take `CN(CC(=O)NO)C(=O)CN1C(=O)CNC2(CCCCCCC2)C1=O` [Compound 26]: the IC50 is 38000 ± 8000 nM.

In the case of `O=C(CNC(=O)CN1C(=O)CNC2(CCCCCCC2)C1=O)NO` [Compound 24], the half-maximal inhibitory concentration (IC50) was > 300000 nM.

Compound `O=C(CNC(=O)CN1C(=O)CNC2(C1=O)C1CC3CC(C1)CC2C3)NO` (stereo not shown) [Compound 18] registered a 50% inhibitory concentration (IC50) of 25000 ± 3000 nM.

Staying with this assay, now noted: Trypanosoma brucei, cultured bloodstream-form Trypanosoma brucei, pH = 7.4; concentration inhibiting growth by 90%; mean of triplicate ± SEM.
With `O=C(CNC(=O)CN1C(=O)CNC2(CCCCCCC2)C1=O)NO` [Compound 24], the 90% effect concentration (IC90) was > 300000 nM.

Take `O=C(CNC(=O)CN1C(=O)CNC2(C1=O)C1CC3CC(C1)CC2C3)NO` (stereo not shown) [Compound 18]: the IC90 worked out at 36000 ± 2000 nM.

Still in this assay, the particulars now being: bloodstream-form T. brucei.
For the compound `O=C(CNC(=O)CN1C(=O)CNC2(CCCCCC2)C1=O)NO` [Compound 27], the “trypanocidal activity (in words)” value is “inactive”.

On to `O=C(CNC(=O)CN1C(=O)CNC2(CCCCCCC2)C1=O)NO` [Compound 24], for which the “trypanocidal activity (in words)” value is “inactive”.

For the compound `O=C(CNC(=O)CN1C(=O)CNC2(C1=O)C1CC3CC(C1)CC2C3)NO` (stereo not shown) [Compound 18], the “trypanocidal activity (in words)” value is “marginal activity”.
